Results on 26 compounds are retold here after US11420973B2, “Amide substituted indole compounds useful as TLR inhibitors” (BRISTOL-MYERS SQUIBB COMPANY, priority 2017, dated 2022).

pIC50: −log10 of the molar value.

The target of test [1] is human TLR9 (Homo sapiens (Human), UniProt Q9NR96). Briefly: TLR9 inhibition reporter assay (HEK-Blue SEAP reporter, ODN2006 stimulation).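 Also: SEAP reporter under IFN-β minimal promoter with five NF-κB and AP-1 sites, 22 h incubation, compounds 0.05 nM–50 µM, inhibition relative to agonist plus DMSO versus known inhibitor.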 As to conditions: read-out: TLR9 IC50; HEK-Blue cells overexpressing human TLR9, ODN2006 5 nM, SEAP reporter. (In general: In a reporter assay the amount or activity of a reporter protein is the signal.)
For test [2], the target named is human TLR8 (Homo sapiens (Human), UniProt Q9NR97). The test can be described thus: TLR8 inhibition reporter assay (HEK-Blue SEAP reporter, R848 stimulation).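 Also: SEAP driven by IFN-β minimal promoter with NF-κB and AP-1 sites, 22 h incubation, compounds 0.05 nM–50 µM, inhibition scaled between agonist plus DMSO and reference inhibitor wells.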 As to conditions: read-out: TLR8 IC50; HEK-Blue cells overexpressing human TLR8, R848 15.9 μM, SEAP reporter.
For test [3], the target named is human TLR7 (Homo sapiens (Human), UniProt Q9NYK1). Briefly: TLR7 inhibition reporter assay (HEK-Blue SEAP reporter, gardiquimod stimulation). The format is cell-based. The note with it: HEK-Blue cells overexpressing human TLR7, gardiquimod 7.5 μM.
Chain of human TLR7 (Q9NYK1 27-1049): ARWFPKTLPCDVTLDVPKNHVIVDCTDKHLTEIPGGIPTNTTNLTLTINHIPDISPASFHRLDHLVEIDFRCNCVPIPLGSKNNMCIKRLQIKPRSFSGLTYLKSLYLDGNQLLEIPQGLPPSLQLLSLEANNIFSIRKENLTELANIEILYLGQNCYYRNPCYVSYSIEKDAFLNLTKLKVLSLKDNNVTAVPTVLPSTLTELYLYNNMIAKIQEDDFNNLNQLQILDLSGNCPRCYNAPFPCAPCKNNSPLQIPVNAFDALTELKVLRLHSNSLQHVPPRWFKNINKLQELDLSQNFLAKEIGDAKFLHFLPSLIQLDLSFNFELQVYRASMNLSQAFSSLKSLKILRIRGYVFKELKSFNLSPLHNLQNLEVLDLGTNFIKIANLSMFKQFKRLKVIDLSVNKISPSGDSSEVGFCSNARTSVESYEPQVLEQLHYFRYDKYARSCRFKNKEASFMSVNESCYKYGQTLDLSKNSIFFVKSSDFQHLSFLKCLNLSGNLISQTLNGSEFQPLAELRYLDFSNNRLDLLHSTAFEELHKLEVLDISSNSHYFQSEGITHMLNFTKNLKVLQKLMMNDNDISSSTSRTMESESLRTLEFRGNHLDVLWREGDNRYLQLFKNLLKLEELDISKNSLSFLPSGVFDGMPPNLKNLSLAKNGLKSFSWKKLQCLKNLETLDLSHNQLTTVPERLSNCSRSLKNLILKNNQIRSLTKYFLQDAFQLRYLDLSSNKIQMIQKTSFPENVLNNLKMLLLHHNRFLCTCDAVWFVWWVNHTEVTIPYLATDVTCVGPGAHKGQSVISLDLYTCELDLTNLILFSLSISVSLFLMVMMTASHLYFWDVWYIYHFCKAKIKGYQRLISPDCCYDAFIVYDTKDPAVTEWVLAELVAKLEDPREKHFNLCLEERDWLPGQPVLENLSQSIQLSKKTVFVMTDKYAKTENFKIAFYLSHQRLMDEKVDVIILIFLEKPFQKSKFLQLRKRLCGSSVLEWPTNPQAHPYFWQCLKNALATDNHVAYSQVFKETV

Chain of human TLR8 (Q9NR97 27-1041): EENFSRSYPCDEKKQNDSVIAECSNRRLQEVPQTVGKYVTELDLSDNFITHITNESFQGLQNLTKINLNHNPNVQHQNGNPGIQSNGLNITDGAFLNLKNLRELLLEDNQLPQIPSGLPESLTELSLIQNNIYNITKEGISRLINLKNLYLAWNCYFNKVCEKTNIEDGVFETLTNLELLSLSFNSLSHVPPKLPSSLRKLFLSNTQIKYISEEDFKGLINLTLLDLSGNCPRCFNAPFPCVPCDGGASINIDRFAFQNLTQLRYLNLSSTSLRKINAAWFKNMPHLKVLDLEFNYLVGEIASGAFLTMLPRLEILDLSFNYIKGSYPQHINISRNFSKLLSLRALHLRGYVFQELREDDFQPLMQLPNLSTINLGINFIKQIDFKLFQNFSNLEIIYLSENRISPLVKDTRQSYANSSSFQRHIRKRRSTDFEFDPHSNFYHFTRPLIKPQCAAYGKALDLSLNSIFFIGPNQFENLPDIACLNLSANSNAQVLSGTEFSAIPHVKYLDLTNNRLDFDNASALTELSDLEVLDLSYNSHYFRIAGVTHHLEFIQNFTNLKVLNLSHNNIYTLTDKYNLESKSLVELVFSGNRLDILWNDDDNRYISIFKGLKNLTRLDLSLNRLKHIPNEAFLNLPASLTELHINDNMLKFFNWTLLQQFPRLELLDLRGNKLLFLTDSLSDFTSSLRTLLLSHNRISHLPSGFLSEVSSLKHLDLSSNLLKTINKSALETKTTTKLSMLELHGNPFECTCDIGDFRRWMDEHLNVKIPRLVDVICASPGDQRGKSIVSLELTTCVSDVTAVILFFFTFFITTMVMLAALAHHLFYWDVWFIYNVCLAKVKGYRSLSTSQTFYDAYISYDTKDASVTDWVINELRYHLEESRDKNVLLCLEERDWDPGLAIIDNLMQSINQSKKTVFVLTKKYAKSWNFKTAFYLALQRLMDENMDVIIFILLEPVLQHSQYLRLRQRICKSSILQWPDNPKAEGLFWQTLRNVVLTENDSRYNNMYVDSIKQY
Chain of human TLR9 (Q9NR96 26-1032): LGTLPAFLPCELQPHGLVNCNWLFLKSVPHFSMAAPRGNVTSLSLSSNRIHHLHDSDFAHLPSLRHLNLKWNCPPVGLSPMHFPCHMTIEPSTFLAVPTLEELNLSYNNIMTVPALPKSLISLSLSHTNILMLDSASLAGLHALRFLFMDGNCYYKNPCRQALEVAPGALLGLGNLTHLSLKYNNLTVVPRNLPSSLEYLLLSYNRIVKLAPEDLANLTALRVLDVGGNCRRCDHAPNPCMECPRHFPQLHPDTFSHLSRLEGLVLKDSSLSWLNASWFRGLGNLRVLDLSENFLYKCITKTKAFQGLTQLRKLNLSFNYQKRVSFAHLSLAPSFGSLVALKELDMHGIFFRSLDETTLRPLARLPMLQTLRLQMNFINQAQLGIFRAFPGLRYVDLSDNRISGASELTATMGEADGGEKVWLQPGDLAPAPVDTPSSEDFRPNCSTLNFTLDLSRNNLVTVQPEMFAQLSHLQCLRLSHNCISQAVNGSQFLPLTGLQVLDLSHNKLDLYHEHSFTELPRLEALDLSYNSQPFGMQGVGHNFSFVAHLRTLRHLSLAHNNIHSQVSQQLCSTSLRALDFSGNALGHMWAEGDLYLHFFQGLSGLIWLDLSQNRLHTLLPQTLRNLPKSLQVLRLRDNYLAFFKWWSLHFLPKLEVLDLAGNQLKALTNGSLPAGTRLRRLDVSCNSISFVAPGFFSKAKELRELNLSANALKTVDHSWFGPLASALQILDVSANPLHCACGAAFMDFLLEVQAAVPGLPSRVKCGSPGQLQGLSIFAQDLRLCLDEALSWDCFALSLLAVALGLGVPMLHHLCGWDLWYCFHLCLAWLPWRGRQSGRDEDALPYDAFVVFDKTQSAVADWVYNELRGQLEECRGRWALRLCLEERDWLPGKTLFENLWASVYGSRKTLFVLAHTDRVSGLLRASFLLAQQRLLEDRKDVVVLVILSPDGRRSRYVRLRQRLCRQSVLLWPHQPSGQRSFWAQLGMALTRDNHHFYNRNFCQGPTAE

Usually pIC50 stands for −log10 of the IC50, conventionally taken in molar units. With `CCN(CC)C(=O)C1CCCN(CC(=O)N2CC3CN(C(=O)c4ccc5[nH]c(-c6ccc(OC)c(OC)c6)c(C(C)C)c5c4)CC3C2)C1` (racemic) [Example 8, 1-(2-{5-[2-(3,4-dimethoxyphenyl)-3-(propan-2-yl)-1H-indole-5-carbonyl]-octahydropyrrolo[3,4-c]pyrrol-2-yl}-2-oxoethyl)-N,N-diethylpiperidine-3-carboxamide], the pIC50 was 5.12 in test [1], 6.90 in test [2] and 6.89 in test [3].

On to `CCN(CC)C(=O)C1CCCN(CC(=O)N2CC3CN(C(=O)c4ccc5[nH]c(-c6ccc(OC)c(OC)c6)c(C(C)C)c5c4)CC3C2)C1` (single isomer, unassigned) [Example 10, 1-(2-{5-[2-(3,4-dimethoxyphenyl)-3-(propan-2-yl)-1H-indole-5-carbonyl]-octahydropyrrolo[3,4-c]pyrrol-2-yl}-2-oxoethyl)-N,N-diethylpiperidine-3-carboxamide], for which the values for the pIC50 in test [1], in test [2] and in test [3] were 5.12, 6.94 and 6.95, respectively.

Take `CCN(CC)C(=O)C1CCCN(CC(=O)N2CC3CN(C(=O)c4ccc5[nH]c(-c6ccc(OC)c(OC)c6)c(C(C)C)c5c4)CC3C2)C1` (single isomer, unassigned) [Example 11, 1-(2-{5-[2-(3,4-dimethoxyphenyl)-3-(propan-2-yl)-1H-indole-5-carbonyl]-octahydropyrrolo[3,4-c]pyrrol-2-yl}-2-oxoethyl)-N,N-diethylpiperidine-3-carboxamide]: the pIC50 in test [1] was 4.44; in test [2], 6.19; in test [3], 6.22.

As to `COc1ccc(-c2[nH]c3ccc(C(=O)N4CC5CNCC5C4)cc3c2C(C)C)cc1OC` (centres unmarked) [Example 1, 2-(3,4-dimethoxyphenyl)-5-{octahydropyrrolo[3,4-c]pyrrole-2-carbonyl}-3-(propan-2-yl)-1H-indole], the negative logarithm of the IC50 (pIC50) was 6.43 in test [1], 7.31 in test [2] and 7.52 in test [3].

As for `COc1ccc(-c2[nH]c3ccc(C(=O)N4CCCN(C)CC4)cc3c2C(C)C)cc1OC` [Example 2, (2-(3,4-dimethoxyphenyl)-3-isopropyl-1H-indol-5-yl)(4-methyl-1,4-diazepan-1-yl)methanone], the pIC50 in test [1] is 5.52; in test [2] it was 8.40; in test [3] it was 7.35.

Turning to `COc1ccc(-c2[nH]c3ccc(C(=O)N(C)C)cc3c2C(C)C)cc1OC` [Example 3, 2-(3,4-dimethoxyphenyl)-3-isopropyl-N,N-dimethyl-1H-indole-5-carboxamide], the pIC50 in test [1] was less than 4.30; in test [2], 7.10; in test [3], 6.82.

Turning to `CNC(=O)c1ccc2[nH]c(-c3ccc(OC)c(OC)c3)c(C(C)C)c2c1` [Example 4, 2-(3,4-dimethoxyphenyl)-3-isopropyl-N-methyl-1H-indole-5-carboxamide], the negative-log IC50 (pIC50) in test [1] was 4.52; in test [2], 7.57; in test [3] it was 6.84.

`COc1ccc(-c2[nH]c3ccc(C(=O)N4C[C@@H]5C[C@H]4CN5)cc3c2C(C)C)cc1OC` [Example 5, ((1S,4S)-2,5-diazabicyclo[2.2.1]heptan-2-yl)(2-(3,4-dimethoxyphenyl)-3-isopropyl-1H-indol-5-yl)methanone]: the negative-log IC50 (pIC50) in test [1] was 5.86; in test [2], 7.37; in test [3] it was 7.37.

For `COc1ccc(-c2[nH]c3ccc(C(=O)N4CC5CN(CC(=O)N(C)C)CC5C4)cc3c2C(C)C)cc1OC` (centres unmarked) [Example 6, 2-{5-[2-(3,4-dimethoxyphenyl)-3-(propan-2-yl)-1H-indole-5-carbonyl]-octahydropyrrolo [3,4-c]pyrrol-2-yl}-N,N-dimethylacetamide], the pIC50 in test [1] was 5.28; in test [2], 6.74; in test [3] it was 6.74.

For `CNC(=O)CN1CC2CN(C(=O)c3ccc4[nH]c(-c5ccc(OC)c(OC)c5)c(C(C)C)c4c3)CC2C1` (centres unmarked) [Example 7, 2-(5-(2-(3,4-dimethoxyphenyl)-3-isopropyl-1H-indole-5-carbonyl)hexahydropyrrolo[3,4-c]pyrrol-2(1H)-yl)-N-methylacetamide], the values for the pIC50 in test [1], in test [2] and in test [3] were 5.40, 6.57 and 6.46, respectively.

With `COc1ccc(-c2[nH]c3ccc(C(=O)N4CC5CN(C(=O)CN(C)C)CC5C4)cc3c2C(C)C)cc1OC` (centres unmarked) [Example 9, 1-(5-(2-(3,4-dimethoxyphenyl)-3-isopropyl-1H-indole-5-carbonyl)hexahydropyrrolo[3,4-c]pyrrol-2(1H)-yl)-2-(dimethylamino)ethan-1-one], the negative logarithm of the IC50 (pIC50) in test [1] is 5.27; in test [2], 7.27; in test [3] it was 7.12.

Regarding `CNCCN1CC2CN(C(=O)c3ccc4[nH]c(-c5ccc(OC)c(OC)c5)c(C(C)C)c4c3)CC2C1` (centres unmarked) [Example 12, (2-(3,4-dimethoxyphenyl)-3-isopropyl-1H-indol-5-yl)(5-(2-(methylamino)ethyl)hexahydropyrrolo[3,4-c]pyrrol-2(1H)-yl)methanone], the negative logarithm of the IC50 (pIC50) in test [1] was 5.92; in test [2], 6.76; in test [3] it was 6.56.

Turning to `COc1ccc(-c2[nH]c3ccc(C(=O)N4CC5CN(C)CC5C4)cc3c2C(C)C)cc1OC` (centres unmarked) [Example 13, (2-(3,4-dimethoxyphenyl)-3-isopropyl-1H-indol-5-yl)(5-methylhexahydropyrrolo[3,4-c]pyrrol-2(1H)-yl)methanone], the values for the negative logarithm of the IC50 (pIC50) in test [1], in test [2] and in test [3] were 5.67, 7.21 and 7.21, respectively.

Take `CCc1c(-c2ccc(OC)c(OC)c2)[nH]c2ccc(C(=O)NC3CCC(N(C)C)CC3)cc12` (centres unmarked) [Example 19, 2-(3,4-dimethoxyphenyl)-N-(4-(dimethylamino)cyclohexyl)-3-ethyl-1H-indole-5-carboxamide]: the pIC50 in test [1] was 5.86; in test [3] it was 6.98.

`CCc1c(-c2ccc(OC)c(OC)c2)[nH]c2ccc(C(=O)N3CCC(N(C)C)CC3)cc12` [Example 31, (2-(3,4-dimethoxyphenyl)-3-ethyl-1H-indol-5-yl)(4-(dimethylamino)piperidin-1-yl)methanone]: the values for the pIC50 in test [1] and in test [3] were 5.31 and 6.53, respectively.

On to `CCc1c(-c2ccc(OC)c(OC)c2)[nH]c2ccc(C(=O)N3CCN(C4CCN(C)CC4)CC3)cc12` [Example 36, (2-(3,4-dimethoxyphenyl)-3-ethyl-1H-indol-5-yl)(4-(1-methylpiperidin-4-yl)piperazin-1-yl)methanone], for which the negative-log IC50 (pIC50) in test [1] was 5.71; in test [3], 6.86.

As to `CCc1c(-c2ccc(OC)c(OC)c2)[nH]c2ccc(C(=O)N[C@H]3CC[C@H](N)CC3)cc12` [Example 47, N-((1r,4r)-4-aminocyclohexyl)-2-(3,4-dimethoxyphenyl)-3-ethyl-1H-indole-5-carboxamide], the results for the pIC50 in test [1] and in test [3] were 5.55 and 6.82, respectively.

For the compound `CCc1c(-c2ccc(OC)c(OC)c2)[nH]c2ccc(C(=O)NCCN3CCCCC3)cc12` [Example 49, 2-(3,4-dimethoxyphenyl)-3-ethyl-N-(2-(piperidin-1-yl)ethyl)-1H-indole-5-carboxamide], the negative-log IC50 (pIC50) was 5.62 in test [1] and 6.84 in test [3].

`CCc1c(-c2ccc(OC)c(OC)c2)[nH]c2ccc(C(=O)NCCc3ccncc3)cc12` [Example 50, 2-(3,4-dimethoxyphenyl)-3-ethyl-N-(2-(pyridin-4-yl)ethyl)-1H-indole-5-carboxamide]: the pIC50 was 4.70 in test [1] and 6.42 in test [3].

On to `CCc1c(-c2ccc(OC)c(OC)c2)[nH]c2ccc(C(=O)NCCc3cccnc3)cc12` [Example 51, 2-(3,4-dimethoxyphenyl)-3-ethyl-N-(2-(pyridin-3-yl)ethyl)-1H-indole-5-carboxamide], for which the negative logarithm of the IC50 (pIC50) is less than 4.30 in test [1] and 6.15 in test [3].

Regarding `CCc1c(-c2ccc(OC)c(OC)c2)[nH]c2ccc(C(=O)N3CCN(c4cnccn4)CC3)cc12` [Example 58, (2-(3,4-dimethoxyphenyl)-3-ethyl-1H-indol-5-yl)(4-(pyrazin-2-yl)piperazin-1-yl)methanone], the values for the negative logarithm of the IC50 (pIC50) in test [2] and in test [3] were 6.96 and 6.71, respectively.

Turning to `CCc1c(-c2ccc(OC)c(OC)c2)[nH]c2ccc(C(=O)N3CCN(c4ccccn4)CC3)cc12` [Example 59, (2-(3,4-dimethoxyphenyl)-3-ethyl-1H-indol-5-yl)(4-(pyridin-2-yl)piperazin-1-yl)methanone], the pIC50 in test [1] is less than 4.30; in test [3], 5.94.

In the case of `Cc1cc(-c2[nH]c3ccc(C(C)C(=O)NCCC(C)(C)O)cc3c2C(C)C)ccn1` (centres unmarked) [Example 132, N-(3-hydroxy-3-methylbutyl)-2-(3-isopropyl-2-(2-methylpyridin-4-yl)-1H-indol-5-yl)propanamide], the pIC50 in test [2] and in test [3] was 6.02 each time.

Turning to `Cc1cc(-c2[nH]c3ccc(C(C)(C)C(=O)N4CCCC(CCN)C4)cc3c2C(C)C)ccn1` (centres unmarked) [Example 154, 1-(3-(2-aminoethyl)piperidin-1-yl)-2-(3-isopropyl-2-(2-methylpyridin-4-yl)-1H-indol-5-yl)-2-methylpropan-1-one], the pIC50 in test [2] was 6.59; in test [3] it was 7.24.

In the case of `Cc1c(-c2[nH]c3ccc(C(=O)N4CCN(C)CC4)cc3c2C(C)C)cn(C)c(=O)c1Cl` [Example 220, 3-chloro-5-(3-isopropyl-5-(4-methylpiperazine-1-carbonyl)-1H-indol-2-yl)-1,4-dimethylpyridin-2(1H)-one], the negative-log IC50 (pIC50) in test [2] is 8.68; in test [3], 6.85.

Consider `CCCN1CCC(N(C(=O)c2ccc3[nH]c(-c4cn(C)c(=O)c(Cl)c4C)c(C(C)C)c3c2)C2CC2)CC1` [Example 221, 2-(5-chloro-1,4-dimethyl-6-oxo-1,6-dihydropyridin-3-yl)-N-cyclopropyl-3-isopropyl-N-(1-propylpiperidin-4-yl)-1H-indole-5-carboxamide], for which the pIC50 in test [1] was 5.53; in test [2], 9.15.
